Measured values from patent publication US7531646B2, “β-D-ribosidase activity indicators with a chromogenic substrate” (priority 2001, dated 2009).

How the values were obtained:
Format in all cases: cell-based
Shigella dysenteriae = assay: Substrate hydrolysis on Columbia agar; conditions: 300 mg/l, 18 hours
Serratia marcescens = assay: Substrate hydrolysis on Columbia agar; conditions: Serratia marcescens NCTC 10211; 300 mg/l; 18 hours
Aeromonas sobria = assay: Substrate hydrolysis on Columbia agar; conditions: Aeromonas sobria NCTC 11215; 300 mg/l; 18 hours
E. aerogenes = assay: Substrate hydrolysis on Columbia agar; conditions: 300 mg/l, 18 hours
Salmonella oranienburg = assay: Substrate hydrolysis on Columbia agar; conditions: Salmonella oranienburg SAX 56; 300 mg/l; 18 hours
Salmonella hadar = assay: Substrate hydrolysis on Columbia agar; conditions: Salmonella hadar SAX 57; 300 mg/l; 18 hours
Y. enterocolitica = assay: Substrate hydrolysis on Columbia agar; conditions: 300 mg/l, 18 hours
M. morganii = assay: Substrate hydrolysis on Columbia agar; conditions: 300 mg/l, 18 hours
Providencia stuartii = assay: Substrate hydrolysis on Columbia agar; conditions: 300 mg/l, 18 hours
Vibrio parahaemolyticus = assay: Substrate hydrolysis on Columbia agar; conditions: 300 mg/l, 18 hours
Vibrio hollisae = assay: Substrate hydrolysis on Columbia agar; conditions: Vibrio hollisae NCTC 11640; 300 mg/l; 18 hours
Vibrio vulnificus = assay: Substrate hydrolysis on Columbia agar; conditions: 300 mg/l, 18 hours
Salmonella alachia = assay: Substrate hydrolysis on Columbia agar; conditions: Salmonella alachia SAX 60; 300 mg/l; 18 hours
From the text: (§1) This was achieved using a densitometer.
(§2) The same method was used as in Example 1.

Salmonella motevideo = assay: Substrate hydrolysis on Columbia agar; conditions: Salmonella motevideo SAX 55; 300 mg/l; 18 hours
From the text: as §1, §2

Shigella boydii = assay: Substrate hydrolysis on Columbia agar; conditions: 300 mg/l, 18 hours
From the text: as §1, §2

Shigella flexneri = assay: Substrate hydrolysis on Columbia agar; conditions: 300 mg/l, 18 hours
From the text: as §1, §2

Shigella sonnei = assay: Substrate hydrolysis on Columbia agar; conditions: 300 mg/l, 18 hours
From the text: as §1, §2

Vibrio mimicus = assay: Substrate hydrolysis on Columbia agar; conditions: Vibrio mimicus NCTC 11435; 300 mg/l; 18 hours
From the text: as §1, §2

Vibrio fluvialis = assay: Substrate hydrolysis on Columbia agar; parameters: key to the marks not given beside the values; conditions: Vibrio fluvialis NCTC 11327; 300 mg/l; 18 hours
Streptococcus gordonii = assay: Substrate hydrolysis on Columbia agar; conditions: Streptococcus gordonii NCTC 7865; 300 mg/l; 18 hours
Streptococcus agalactiae = assay: Substrate hydrolysis on Columbia agar; conditions: Streptococcus agalactiae NCTC 8181; 300 mg/l; 18 hours
[1] = system: Haemolytic streptococcus B; assay: Substrate hydrolysis on Columbia agar; conditions: 300 mg/l, 18 hours
[2] = system: Haemolytic streptococcus C; assay: Substrate hydrolysis on Columbia agar; conditions: 300 mg/l, 18 hours
[3] = system: Haemolytic streptococcus G; assay: Substrate hydrolysis on Columbia agar; conditions: 300 mg/l, 18 hours
Listeria innocua = assay: Substrate hydrolysis on Columbia agar; conditions: Listeria innocua PHLS wild; 300 mg/l; 18 hours
[4] = system: Arcanobacterium haemolyticus; assay: Substrate hydrolysis on Columbia agar; conditions: Arcanobacterium haemolyticus NCTC 52; 300 mg/l; 18 hours
Bacillus cereus = assay: Substrate hydrolysis on Columbia agar; conditions: Bacillus cereus NCTC; 300 mg/l; 18 hours
[5] = system: Staphylococcus saprophyticus; assay: Substrate hydrolysis on Columbia agar; conditions: 300 mg/l, 18 hours
Enterococcus faecium = assay: Substrate hydrolysis on Columbia agar; conditions: 300 mg/l, 18 hours
Gram negative bacteria = assay: Substrate hydrolysis on Columbia agar, summary of screen

## 3′,4′-dihydroxyflavone-4′-β-D-glucopyranoside sodium salt [DHF-glucoside]
Shigella dysenteriae; Shigella dysenteriae (type 2) NCTC 9952
  Hydrolysis by Gram negative bacteria: −
Shigella dysenteriae; Shigella dysenteriae (type 3) NCTC 9720
  Hydrolysis by Gram negative bacteria: −
Shigella dysenteriae; Shigella dysenteriae (type 4) NCTC 9759
  Hydrolysis by Gram negative bacteria: −
Serratia marcescens
  Hydrolysis by Gram negative bacteria: +
Aeromonas sobria
  Hydrolysis by Gram negative bacteria: −
E. aerogenes; E. aerogenes EAE 1
  Hydrolysis by Gram negative bacteria: +
E. aerogenes; E. aerogenes NCIMB 10102
  Hydrolysis by Gram negative bacteria: +
Salmonella oranienburg
  Hydrolysis by Gram negative bacteria: −
Salmonella hadar
  Hydrolysis by Gram negative bacteria: −
Y. enterocolitica; Y. enterocolitica NCTC 10460
  Hydrolysis by Gram negative bacteria: −
Y. enterocolitica; Y. enterocolitica NCTC 11176
  Hydrolysis by Gram negative bacteria: −
Y. enterocolitica; Y. enterocolitica NCTC 11177
  Hydrolysis by Gram negative bacteria: −
Y. enterocolitica; Y. enterocolitica NCTC 11600
  Hydrolysis by Gram negative bacteria: −
M. morganii; M. morganii MMO 1
  Hydrolysis by Gram negative bacteria: +
M. morganii; M. morganii MMO 2
  Hydrolysis by Gram negative bacteria: +
M. morganii; M. morganii NCTC 235
  Hydrolysis by Gram negative bacteria: −
Providencia stuartii; Providencia stuartii PST 1
  Hydrolysis by Gram negative bacteria: +
Providencia stuartii; Providencia stuartii PST 2
  Hydrolysis by Gram negative bacteria: +
Vibrio parahaemolyticus; Vibrio parahaemolyticus NCTC 10441
  Hydrolysis by Gram negative bacteria: −
Vibrio parahaemolyticus; Vibrio parahaemolyticus NCTC 10884
  Hydrolysis by Gram negative bacteria: −
Vibrio parahaemolyticus; Vibrio parahaemolyticus NCTC 10903
  Hydrolysis by Gram negative bacteria: −
Vibrio parahaemolyticus; Vibrio parahaemolyticus NCTC 11344
  Hydrolysis by Gram negative bacteria: −
Vibrio parahaemolyticus; Vibrio parahaemolyticus NCTC 12205
  Hydrolysis by Gram negative bacteria: −
Vibrio hollisae
  Hydrolysis by Gram negative bacteria: −
Vibrio vulnificus; Vibrio vulnificus NCTC 11066
  Hydrolysis by Gram negative bacteria: +
Vibrio vulnificus; Vibrio vulnificus NCTC 11067
  Hydrolysis by Gram negative bacteria: +
Salmonella alachia
  Hydrolysis by Gram negative bacteria: −
Salmonella motevideo
  Hydrolysis by Gram negative bacteria: −
Shigella boydii; Shigella boydii NCTC 9327
  Hydrolysis by Gram negative bacteria: −
Shigella boydii; Shigella boydii NCTC 9732
  Hydrolysis by Gram negative bacteria: −
Shigella boydii; Shigella boydii NCTC 9850
  Hydrolysis by Gram negative bacteria: −
Shigella flexneri; Shigella flexneri NCTC 8192
  Hydrolysis by Gram negative bacteria: −
Shigella flexneri; Shigella flexneri NCTC 9723
  Hydrolysis by Gram negative bacteria: −
Shigella flexneri; Shigella flexneri NCTC 9780
  Hydrolysis by Gram negative bacteria: −
Shigella sonnei; Shigella sonnei NCTC 8219
  Hydrolysis by Gram negative bacteria: −
Shigella sonnei; Shigella sonnei NCTC 8574
  Hydrolysis by Gram negative bacteria: −
Shigella sonnei; Shigella sonnei NCTC 8586
  Hydrolysis by Gram negative bacteria: −
Shigella sonnei; Shigella sonnei NCTC 9774
  Hydrolysis by Gram negative bacteria: −
Shigella sonnei; Shigella sonnei NCTC 10352
  Hydrolysis by Gram negative bacteria: −
Vibrio mimicus
  Hydrolysis by Gram negative bacteria: −
Vibrio fluvialis
  Hydrolysis by Gram negative bacteria: ++
Streptococcus gordonii
  Hydrolysis by Gram positive organisms: −
Streptococcus agalactiae
  Hydrolysis by Gram positive organisms: −
[1]; Haemolytic streptococcus B 1
  Hydrolysis by Gram positive organisms: −
[1]; Haemolytic streptococcus B 2
  Hydrolysis by Gram positive organisms: −
[1]; Haemolytic streptococcus B 3
  Hydrolysis by Gram positive organisms: −
[2]; Haemolytic streptococcus C 1
  Hydrolysis by Gram positive organisms: −
[2]; Haemolytic streptococcus C 67736
  Hydrolysis by Gram positive organisms: −
[2]; Haemolytic streptococcus C 68350
  Hydrolysis by Gram positive organisms: −
[3]; Haemolytic streptococcus G 1
  Hydrolysis by Gram positive organisms: −
[3]; Haemolytic streptococcus G 2
  Hydrolysis by Gram positive organisms: −
[3]; Haemolytic streptococcus G 3
  Hydrolysis by Gram positive organisms: −
Listeria innocua
  Hydrolysis by Gram positive organisms: ++
[4]
  Hydrolysis by Gram positive organisms: −
Bacillus cereus
  Hydrolysis by Gram positive organisms: +
[5]; Staphylococcus saprophyticus 1
  Hydrolysis by Gram positive organisms: −
[5]; Staphylococcus saprophyticus 2
  Hydrolysis by Gram positive organisms: −
[5]; Staphylococcus saprophyticus 3
  Hydrolysis by Gram positive organisms: −
[5]; Staphylococcus saprophyticus 4
  Hydrolysis by Gram positive organisms: −
[5]; Staphylococcus saprophyticus 5
  Hydrolysis by Gram positive organisms: −
Enterococcus faecium; Enterococcus faecium 1
  Hydrolysis by Gram positive organisms: ++
Enterococcus faecium; Enterococcus faecium 2
  Hydrolysis by Gram positive organisms: ++
Enterococcus faecium; Enterococcus faecium 3
  Hydrolysis by Gram positive organisms: ++
Enterococcus faecium; Enterococcus faecium 4
  Hydrolysis by Gram positive organisms: ++
Enterococcus faecium; Enterococcus faecium 5
  Hydrolysis by Gram positive organisms: ++
Enterococcus faecium; Enterococcus faecium 6
  Hydrolysis by Gram positive organisms: ++
Enterococcus faecium; Enterococcus faecium 7
  Hydrolysis by Gram positive organisms: ++
Enterococcus faecium; Enterococcus faecium 121285 - wild ′99
  Hydrolysis by Gram positive organisms: ++
Gram negative bacteria; of 120 Gram negative bacteria tested
  strains known to be producers of β-glucosidase which did not appear to hydrolyse the substrate: 11 strains
Gram negative bacteria; of 120 Gram negative bacteria tested, 300 mg/l, 18 hours
  Gram negative bacteria tested that hydrolysed the substrate: 20%
Gram negative bacteria; positive Gram negative strains, agar
  colouration and diffusion of positive strains: brown/black colouration which showed no diffusion in agar
